Measured values reported in PubChem BioAssay (NCI).
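Compound exposure: 48 hours, 5 concentrations, 96-well plates. The concentration for full growth arrest is given as TGI.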

What was measured:
Assay in all cases: NCI tumour cell line growth inhibition, 48 h
786-0 renal = test system: 786-0 renal
A498 renal = test system: A498 renal
A549 NSCLC = test system: A549 NSCLC
ACHN renal = test system: ACHN renal
BT-549 breast = test system: BT-549 breast
CAKI-1 renal = test system: CAKI-1 renal
CCRF-CEM leukemia = test system: CCRF-CEM leukemia
COLO 205 colon = test system: COLO 205 colon
DU-145 prostate = test system: DU-145 prostate
EKVX NSCLC = test system: EKVX NSCLC
HCC-2998 colon = test system: HCC-2998 colon
HCT-116 colon = test system: HCT-116 colon
HCT-15 colon = test system: HCT-15 colon
HL-60(TB) leukemia = test system: HL-60(TB) leukemia
HOP-62 NSCLC = test system: HOP-62 NSCLC
HOP-92 NSCLC = test system: HOP-92 NSCLC
HS 578T breast = test system: HS 578T breast
HT29 colon = test system: HT29 colon
IGROV1 ovarian = test system: IGROV1 ovarian
K-562 leukemia = test system: K-562 leukemia
KM12 colon = test system: KM12 colon
LOX IMVI melanoma = test system: LOX IMVI melanoma
M14 melanoma = test system: M14 melanoma
MALME-3M melanoma = test system: MALME-3M melanoma
MCF7 breast = test system: MCF7 breast
MDA-MB-231 breast = test system: MDA-MB-231 breast
MDA-MB-435 = test system: MDA-MB-435
MDA-N = test system: MDA-N
MOLT-4 leukemia = test system: MOLT-4 leukemia
NCI-H226 lung = test system: NCI-H226 lung
NCI-H23 lung = test system: NCI-H23 lung
NCI-H460 lung = test system: NCI-H460 lung
NCI-H522 lung = test system: NCI-H522 lung
NCI/ADR-RES ovarian = test system: NCI/ADR-RES ovarian
OVCAR-3 ovarian = test system: OVCAR-3 ovarian
OVCAR-4 ovarian = test system: OVCAR-4 ovarian
OVCAR-5 ovarian = test system: OVCAR-5 ovarian
OVCAR-8 ovarian = test system: OVCAR-8 ovarian
PC-3 prostate = test system: PC-3 prostate
RPMI-8226 leukemia = test system: RPMI-8226 leukemia
RXF 393 renal = test system: RXF 393 renal
SF-268 CNS = test system: SF-268 CNS
SF-295 CNS = test system: SF-295 CNS
SF-539 CNS = test system: SF-539 CNS
SK-MEL-2 melanoma = test system: SK-MEL-2 melanoma
SK-MEL-28 melanoma = test system: SK-MEL-28 melanoma
SK-MEL-5 melanoma = test system: SK-MEL-5 melanoma
SK-OV-3 ovarian = test system: SK-OV-3 ovarian
SN12C renal = test system: SN12C renal
SNB-19 CNS = test system: SNB-19 CNS
SNB-75 CNS = test system: SNB-75 CNS
SR leukemia = test system: SR leukemia
SW-620 colon = test system: SW-620 colon
T-47D breast = test system: T-47D breast
TK-10 renal = test system: TK-10 renal
U251 CNS = test system: U251 CNS
UACC-257 melanoma = test system: UACC-257 melanoma
UACC-62 melanoma = test system: UACC-62 melanoma
UO-31 renal = test system: UO-31 renal
DLD-1 colon = test system: DLD-1 colon
DMS 114 small cell lung = test system: DMS 114 small cell lung
DMS 273 small cell lung = test system: DMS 273 small cell lung
LXFL 529 NSCLC = test system: LXFL 529 NSCLC
M19-MEL melanoma = test system: M19-MEL melanoma
SNB-78 CNS = test system: SNB-78 CNS

`CC(=NCC(=O)O)c1ccccc1` showed a TGI (786-0 renal) of over 100 µM, a TGI (A498 renal) of over 100 µM and a TGI (A549 NSCLC) of over 100 µM. The TGI (ACHN renal) was over 100 µM, the TGI (BT-549 breast) was over 100 µM and the TGI (CAKI-1 renal) was over 100 µM. It also gave a TGI (CCRF-CEM leukemia) of over 100 µM, a TGI (COLO 205 colon) of over 100 µM and a TGI (DU-145 prostate) of over 100 µM. It also gave a TGI (EKVX NSCLC) of over 100 µM, a TGI (HCC-2998 colon) of over 100 µM and a TGI (HCT-116 colon) of over 100 µM. For the same molecule, the TGI (HCT-15 colon) was over 100 µM, the TGI (HL-60(TB) leukemia) was over 100 µM and the TGI (HOP-62 NSCLC) was over 100 µM. For the same molecule, the TGI (HOP-92 NSCLC) was over 100 µM, the TGI (HS 578T breast) was over 100 µM and the TGI (HT29 colon) was over 100 µM. For the same molecule, the TGI (IGROV1 ovarian) was over 100 µM, the TGI (K-562 leukemia) was over 100 µM and the TGI (KM12 colon) was over 100 µM. It also gave a TGI (LOX IMVI melanoma) of over 100 µM, a TGI (M14 melanoma) of over 100 µM and a TGI (MALME-3M melanoma) of over 100 µM. For the same molecule, the TGI (MCF7 breast) was over 100 µM, the TGI (MDA-MB-231 breast) was over 100 µM and the TGI (MDA-MB-435) was over 100 µM. It also gave a TGI (MDA-N) of over 100 µM, a TGI (MOLT-4 leukemia) of over 100 µM and a TGI (NCI-H226 lung) of over 100 µM. For the same molecule, the TGI (NCI-H23 lung) was over 100 µM, the TGI (NCI-H460 lung) was over 100 µM and the TGI (NCI-H522 lung) was over 100 µM. It also gave a TGI (NCI/ADR-RES ovarian) of over 100 µM, a TGI (OVCAR-3 ovarian) of over 100 µM and a TGI (OVCAR-4 ovarian) of over 100 µM. The TGI (OVCAR-5 ovarian) was over 100 µM, the TGI (OVCAR-8 ovarian) was over 100 µM and the TGI (PC-3 prostate) was over 100 µM. The TGI (RPMI-8226 leukemia) was over 100 µM, the TGI (RXF 393 renal) was over 100 µM and the TGI (SF-268 CNS) was over 100 µM. It also gave a TGI (SF-295 CNS) of over 100 µM, a TGI (SF-539 CNS) of over 100 µM and a TGI (SK-MEL-2 melanoma) of over 100 µM. For the same molecule, the TGI (SK-MEL-28 melanoma) was over 100 µM, the TGI (SK-MEL-5 melanoma) was over 100 µM and the TGI (SK-OV-3 ovarian) was over 100 µM. It also gave a TGI (SN12C renal) of over 100 µM, a TGI (SNB-19 CNS) of over 100 µM and a TGI (SNB-75 CNS) of over 100 µM. For the same molecule, the TGI (SR leukemia) was over 100 µM, the TGI (SW-620 colon) was over 100 µM and the TGI (T-47D breast) was over 100 µM. For the same molecule, the TGI (TK-10 renal) was over 100 µM, the TGI (U251 CNS) was over 100 µM and the TGI (UACC-257 melanoma) was over 100 µM. For the same molecule, the TGI (UACC-62 melanoma) was over 100 µM and the TGI (UO-31 renal) was over 100 µM.
In the case of `CC(=O)NC1=C(C)C(=O)c2c(nc3n2CCC3OC(=O)c2ccccc2)C1=O` (stereo not drawn), the TGI (786-0 renal) is reported as 14.9 µM, the TGI (A498 renal) is reported as 25.3 µM and the TGI (A549 NSCLC) is reported as 3.1 µM. It also gave a TGI (ACHN renal) of 8.72 µM, a TGI (CAKI-1 renal) of 4.78 µM and a TGI (CCRF-CEM leukemia) of 4.44 µM. For the same molecule, the TGI (COLO 205 colon) was 12.5 µM, the TGI (DLD-1 colon) was 4.46 µM and the TGI (DMS 114 small cell lung) was 2.54 µM. It also gave a TGI (DMS 273 small cell lung) of 5.28 µM, a TGI (EKVX NSCLC) of 3.01 µM and a TGI (HCC-2998 colon) of 12.1 µM. For the same molecule, the TGI (HCT-116 colon) was 4.1 µM, the TGI (HL-60(TB) leukemia) was 5.13 µM and the TGI (HOP-62 NSCLC) was 5.56 µM. It also gave a TGI (HOP-92 NSCLC) of 4.7 µM, a TGI (HT29 colon) of 3.48 µM and a TGI (IGROV1 ovarian) of 3.98 µM. It also gave a TGI (K-562 leukemia) of 6.17 µM, a TGI (KM12 colon) of 10.3 µM and a TGI (LOX IMVI melanoma) of 2.96 µM. The TGI (LXFL 529 NSCLC) was 2.9 µM, the TGI (M14 melanoma) was 3.47 µM and the TGI (M19-MEL melanoma) was 3.57 µM. It also gave a TGI (MALME-3M melanoma) of 3.38 µM, a TGI (MOLT-4 leukemia) of 5.57 µM and a TGI (NCI-H226 lung) of 4.69 µM. For the same molecule, the TGI (NCI-H23 lung) was 3.55 µM, the TGI (NCI-H460 lung) was 5.13 µM and the TGI (NCI-H522 lung) was 4.06 µM. For the same molecule, the TGI (OVCAR-3 ovarian) was 0.528 µM, the TGI (OVCAR-4 ovarian) was 3.2 µM and the TGI (OVCAR-5 ovarian) was 3.54 µM. For the same molecule, the TGI (OVCAR-8 ovarian) was 2.95 µM, the TGI (RPMI-8226 leukemia) was 5.62 µM and the TGI (RXF 393 renal) was 11.6 µM. It also gave a TGI (SF-268 CNS) of 4.52 µM, a TGI (SF-295 CNS) of 3.06 µM and a TGI (SF-539 CNS) of 3.4 µM. It also gave a TGI (SK-MEL-2 melanoma) of 3.19 µM, a TGI (SK-MEL-28 melanoma) of 3.67 µM and a TGI (SK-MEL-5 melanoma) of 3.12 µM. For the same molecule, the TGI (SK-OV-3 ovarian) was 8.51 µM, the TGI (SN12C renal) was 3.41 µM and the TGI (SNB-19 CNS) was 7.65 µM. For the same molecule, the TGI (SNB-75 CNS) was 6.36 µM, the TGI (SNB-78 CNS) was 5.46 µM and the TGI (SR leukemia) was 6 µM. For the same molecule, the TGI (SW-620 colon) was 4.55 µM, the TGI (TK-10 renal) was 24.1 µM and the TGI (U251 CNS) was 3.86 µM. For the same molecule, the TGI (UACC-257 melanoma) was 2.93 µM, the TGI (UACC-62 melanoma) was 3.44 µM and the TGI (UO-31 renal) was 6.3 µM.
